Measurements as given in US20160237052A1, “Histamine-3 Receptor Antagonists” (MediSynergics, LLC, priority 2015, published 2016).
Read-outs that look alike come from different tables or passages of the source.

Columns and labels:
SERT = SERT (Homo sapiens, UniProt P31645); test: Serotonin reuptake activity (SERT), PDSP; type: binding; conditions: for inhibition at 10 µM: 10 μM drug concentration; for Ki: calculated Ki
H1 = H1 (Homo sapiens, UniProt P35367); test: Histamine H1 receptor binding (NIMH PDSP); conditions: for inhibition at 10 µM: read-out: Inhibition (% at 10 μM)
Experimental: The compounds from the above Examples were tested for activity vs. histamine receptor subtypes (i.e., H1, H2, H3), at an initial concentration of 10 μM. Binding activity measurement was performed by the NIMH Psychoactive Drug Screening Program (PDSP) at the University of North Carolina Chapel Hill, N.C. […] Data (e.g., H3antagonist activity) may also be generated using a commercially available kit from Invitrogen/Thermo Fisher Scientific Inc. (Tango™ H3-bla U2OS DA Assay Kit).

H3 = H3 (UniProt Q9Y5N1); test: Histamine H3 receptor binding (NIMH PDSP); conditions: H3 receptor subtype
Experimental: The compounds from the above Examples were tested for activity vs. histamine receptor subtypes (i.e., H1, H2, H3), at an initial concentration of 10 μM. Binding activity measurement was performed by the NIMH Psychoactive Drug Screening Program (PDSP) at the University of North Carolina Chapel Hill, N.C. The procedures employed by the PDSP are described in the NIMH PDSP Assay Protocol Book Version II (see, http://pdsp.med.unc.edu/PDSP %20Protocols %2011%202013-03-28.pdf). Data (e.g., H3antagonist activity) may also be generated using a commercially available kit from Invitrogen/Thermo Fisher Scientific Inc. (Tango™ H3-bla U2OS DA Assay Kit). Data for serotonin reuptake activity (SERT, % inhibition at 10 μM drug concentration; calculated Ki) were also generated by PDSP.

Chain of H1 (P35367 whole entry): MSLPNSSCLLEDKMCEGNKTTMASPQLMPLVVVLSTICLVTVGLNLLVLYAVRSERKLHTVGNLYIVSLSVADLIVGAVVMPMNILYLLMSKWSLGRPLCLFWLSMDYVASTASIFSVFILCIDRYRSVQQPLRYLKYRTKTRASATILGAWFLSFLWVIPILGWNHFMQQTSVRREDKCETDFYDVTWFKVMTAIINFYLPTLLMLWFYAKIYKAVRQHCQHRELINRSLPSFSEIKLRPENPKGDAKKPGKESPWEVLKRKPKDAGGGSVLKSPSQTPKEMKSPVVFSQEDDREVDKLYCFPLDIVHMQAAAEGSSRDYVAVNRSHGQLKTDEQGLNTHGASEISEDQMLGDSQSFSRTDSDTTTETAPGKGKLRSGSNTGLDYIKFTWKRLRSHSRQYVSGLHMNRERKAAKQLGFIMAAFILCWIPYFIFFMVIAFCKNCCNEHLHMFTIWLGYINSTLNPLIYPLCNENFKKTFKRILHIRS
Chain of SERT (P31645 whole entry, species assumed): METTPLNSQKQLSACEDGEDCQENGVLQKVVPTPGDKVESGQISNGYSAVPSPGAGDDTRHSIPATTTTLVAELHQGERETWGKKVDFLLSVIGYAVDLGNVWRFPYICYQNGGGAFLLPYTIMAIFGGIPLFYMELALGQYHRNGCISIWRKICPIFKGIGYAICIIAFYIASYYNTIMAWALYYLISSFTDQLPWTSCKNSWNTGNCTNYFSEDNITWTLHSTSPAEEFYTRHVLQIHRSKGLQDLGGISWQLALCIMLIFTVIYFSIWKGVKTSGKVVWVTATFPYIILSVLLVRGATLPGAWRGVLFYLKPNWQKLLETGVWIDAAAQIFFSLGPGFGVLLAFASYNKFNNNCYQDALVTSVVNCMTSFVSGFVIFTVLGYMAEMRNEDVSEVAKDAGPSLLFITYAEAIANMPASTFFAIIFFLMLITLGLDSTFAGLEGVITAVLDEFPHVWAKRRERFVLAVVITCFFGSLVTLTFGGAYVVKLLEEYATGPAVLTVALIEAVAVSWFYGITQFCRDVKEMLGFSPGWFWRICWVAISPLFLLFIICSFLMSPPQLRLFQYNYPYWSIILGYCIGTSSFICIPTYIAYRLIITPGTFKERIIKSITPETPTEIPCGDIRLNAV

inhibition at 10 µM (H1; H1 receptor subtype, 10 μM) | Ki (H1; H1 receptor subtype, read-out: Ki) | SMILES | inhibition at 10 µM (SERT) | Ki (SERT) | Ki (H1) | inhibition at 10 µM (H1) | Ki (H3) | Inhibition (% at 10 μM) (H3)
 |  | CN(C)CCCC1(c2ccc(F)cc2)OCc2cc(CN3CCCCC3)ccc21 (stereo not drawn) [Example 1] | 98.8% | 29 nM | 101 nM | 89.9% | 20 nM | 99.6%
89.8% | 144 nM | CN(C)CCCC1(c2ccc(F)cc2)OCc2cc(CN3CCN(C)CC3)ccc21 (stereo not drawn) [Example 2, 3-[5-((4-methylpiperazin-1-yl)methyl)-1-(4-fluorophenyl)-1,3-dihydro-2-benzofuran-1-yl]-N,N-dimethylpropan-1-amine] | 99.3% | 31 nM |  |  | 155 nM | 89.8%
